According to publication PMC7916974 (Viruses, 2021):
Like-named read-outs stand apart in the source and are kept apart here.

Key:
[1] = Cytotoxicity assay (MTT), MDCK cells; assay type: cell-based, canine; conditions: dog; for CC50 at 72 h: MDCK cells, MTT, read-out: CC50 (50% cytotoxic concentration)
[2] = test system: A/Virginia/ATCC2/2009 H1N1; assay: microbe, parasite or virus in culture; assay type: cell-based; conditions: Influenza A virus, MDCK, 72 h
A/California/2/2014 H3N2 = assay: microbe, parasite or virus in culture; assay type: cell-based; conditions: Influenza A virus, H3N2, MDCK, 72 h
A/Weiss/43 H1N1 [3] = assay: Infected mouse model: lung index, symptoms; assay type: in vivo, BALB/c mice; conditions: for clinical symptoms of infected mice: intragastric once a day for six days
[4] = test system: pro-inflammatory cytokines (TNF-α, IL-1β, IL-6, and IL-8); assay: Cytokine mRNA in lungs of infected mice (qRT-PCR); assay type: in vivo, BALB/c mice; conditions: two, four and six days post-infection
A/Weiss/43 H1N1 [5] = test system: A/Weiss/43 H1N1
A/Weiss/43 H1N1 [6] = assay: microbe, parasite or virus in culture; conditions: Influenza A virus, H1N1, MDCK, 72 h, read-out: EC50 (50% effective concentration)
in vitro = assay type: cell-based; conditions: human
[7] = test system: A/Weiss/43 H1N1-induced apoptosis in A549 cells; assay type: cell-based; conditions: 24 h post-infection
IAV = assay: microbe, parasite or virus in culture; assay type: cell-based; conditions: Influenza A virus, ATCC2|H1N1|H3N2, MDCK, read-out: EC50 values (range over IAV strains)
influenza A virus [8] = assay type: cell-based
influenza A virus [9] = assay type: cell-based; remark: listed apart in the source
A/Weiss/43 H1N1 [10] = assay type: cell-based, influenza A virus
A/Weiss/43 H1N1 [11] = assay type: cell-based, influenza A virus; conditions: 6.25–100 µM
[12] = test system: A549 cells infected with A/Weiss/43 H1N1; assay type: cell-based; conditions: 24 h
[13] = test system: A549 cells infected with A/Weiss/43 H1N1; assay type: cell-based; conditions: 24 h post-infection
A/Weiss/43 H1N1 [14] = assay: Viral NP mRNA in lungs of infected mice (qRT-PCR); assay type: in vivo, BALB/c mice; conditions: two, four and six days post-infection
[15] = 50 mg/kg/d intragastric, six days post infection
[16] = 100 mg/kg/d intragastric, six days post infection

CCOC(=O)C1=C[C@@H](OC(CC)CC)[C@H](NC(C)=O)[C@@H](N)C1 [Oseltamivir, reference compound]
CC50 at 72 h [1]: > 800 µM
EC50 [2]: 6.97 ± 0.38 µM
EC50 (A/California/2/2014 H3N2): 9.47 ± 2.48 µM
Inhibition ratio of lung index (A/Weiss/43 H1N1 [3]; [15]): 35.99%
Lung Index (A/Weiss/43 H1N1 [3]; [15]): 1.09 ± 0.12
clinical symptoms of infected mice (A/Weiss/43 H1N1 [3]): relieve these symptoms
lung indexes versus virus control group (in words) (A/Weiss/43 H1N1 [3]; six days post infection): significantly lower than those in the virus control group
expressions of pro-inflammatory cytokines in mouse lungs [4]: inhibit the increased expressions of pro-inflammatory cytokines
SI (ratio of CC50 to EC50) (A/Weiss/43 H1N1 [5]): >1403.51
EC50 (A/Weiss/43 H1N1 [6]): 0.57 ± 0.29 µM

NC(=O)c1ncn([C@@H]2O[C@H](CO)[C@@H](O)[C@H]2O)n1 [Ribavirin]
CC50 at 72 h [1]: 608 ± 34 µM
EC50 [2]: 13.9 ± 1.06 µM
EC50 (A/California/2/2014 H3N2): 13 ± 3.74 µM
clinical symptoms of infected mice (A/Weiss/43 H1N1 [3]): relieve these symptoms
expressions of pro-inflammatory cytokines in mouse lungs [4]: inhibit the increased expressions of pro-inflammatory cytokines
EC50 (A/Weiss/43 H1N1 [6]): 22.2 ± 0.76 µM

COC1=C(c2ccc(Cl)cc2)C(=O)OC1(C)COS(=O)(=O)Cc1ccccc1 (stereo not shown) [Compound 3D]
viability at 72 h, 800 µM [1]: ~40%
CC50 at 72 h [1]: 365 ± 1.58 µM
CC50 at 72 h (in vitro): 309 ± 9.96 µM
viability at 72 h, 800 µM (in vitro): ~40%
EC50 [2]: 18.1 ± 2.6 µM
EC50 (A/California/2/2014 H3N2): 24.1 ± 1.16 µM
apoptosis rate ([7]; 30 µM, infected A549 cells (virus control 32.85 ± 3.05%)): 21.93 ± 0.97%
apoptosis rate ([7]; 50 µM, infected A549 cells): 15.17 ± 2.87%
apoptosis rate ([7]; 80 µM, infected A549 cells): 7.23 ± 1.30%
Inhibition ratio of lung index (A/Weiss/43 H1N1 [3]; 25 mg/kg/d intragastric, six days post infection): 11.35%
Lung Index (A/Weiss/43 H1N1 [3]; 25 mg/kg/d intragastric, six days post infection (virus control 1.70 ± 0.06)): 1.51 ± 0.06
Inhibition ratio of lung index (A/Weiss/43 H1N1 [3]; [15]): 28.47%
Lung Index (A/Weiss/43 H1N1 [3]; [15]): 1.22 ± 0.09
Inhibition ratio of lung index (A/Weiss/43 H1N1 [3]; [16]): 33.21%
Lung Index (A/Weiss/43 H1N1 [3]; [16]): 1.14 ± 0.05
clinical symptoms of infected mice (A/Weiss/43 H1N1 [3]): relieve these symptoms
lung indexes versus virus control group (in words) (A/Weiss/43 H1N1 [3]; six days post infection): significantly lower than those in the virus control group
EC50 (IAV): 12.3 to 24.1 µM
inhibitory effect on viral replication, added before viral adsorption (influenza A virus [8]): almost no inhibitory effects
inhibitory effect, added during viral inoculation (influenza A virus [8]): slight inhibitory effect
protective effect, added after viral adsorption (influenza A virus [8]): significant protective effect
levels of NP mRNA, time-of-addition (influenza A virus [9]): significantly suppressed
virus titers of A549 cells (A/Weiss/43 H1N1 [10]): significantly decreased
levels of NP mRNA in IAV-infected MDCK cells (A/Weiss/43 H1N1 [11]): decrease in the levels of NP mRNA
expression of influenza M2 protein ([12]; 30, 50, 80 µM): inhibited
IAV-induced upregulation of Bax/Bcl-2 ([12]; A549 cells): reduced this upregulation
mRNA expression of RIG-I, MAVS, TLR3, IRF3, IRF7 [13]: levels decreased
mRNA expression of cytokines and chemokines (IL-1β, IL-6, IL-8, TNF-α) ([13]; dose-dependent): significantly decreased
expression of viral NP mRNA in IAV infected lungs (A/Weiss/43 H1N1 [14]): decreased the expression of viral NP mRNA in a dose-dependent manner
expressions of pro-inflammatory cytokines in mouse lungs [4]: inhibit the increased expressions of pro-inflammatory cytokines
SI (ratio of CC50 to EC50) (A/Weiss/43 H1N1 [5]): 29.68
antiviral activity against A/Weiss/43 H1N1 (in words) (A/Weiss/43 H1N1 [5]): presented the antiviral activity
EC50 (A/Weiss/43 H1N1 [6]): 12.3 ± 0.53 µM
